Data as given in US20240293459A1 (priority 2021, published 2024).

tested on: healthy donor PBMC (CD8+ T cells); type: cell-based, human; settings: of one 48 well plate; two rounds of stimulation with peptide-pulsed autologous DCs; HLA-matched healthy donor

Row | Sequence | wells showing clear peptide tetramer positive CD8+ T cell population [wells]
1 | KLFAAETLK [NSP13-134] | 11
2 | TLVPQEHYV [NSP13-242] | 48
3 | VYIGDPAQL (listed as Homo Sapiens) [NSP13-400, NSP13 derived HLA-A2402 peptide] | 9
